Experimental data reported in ChEMBL document CHEMBL1201862, “PubChem BioAssay data set” (2004).
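A five-concentration, 48-hour dose response in 96-well plates underlies each endpoint, interpolated linearly between surrounding concentrations. Here, GI50 denotes the concentration required for 50% inhibition of growth.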 The source made the active and inactive calls. Rule as the data show it: active = GI50 up to about 1.1 µM and inactive = higher.

Experiments:
Assay in all cases: DTP human tumour cell line panel, 48 h
[1] = tested on: SN12C
[2] = tested on: SR
[3] = tested on: SK-MEL-28
[4] = tested on: SNB-19
[5] = tested on: SNB-75
[6] = tested on: U-251
[7] = tested on: M14
[8] = tested on: NCI-H23
[9] = tested on: OVCAR-5
[10] = tested on: RXF 631
[11] = tested on: KM12
[12] = tested on: HL-60
[13] = tested on: HCT-15
[14] = tested on: NCI-H226
[15] = tested on: IGROV-1
[16] = tested on: A549
[17] = tested on: COLO 205
[18] = tested on: HOP-62
[19] = tested on: HOP-92
[20] = tested on: UACC-62
[21] = tested on: SNB-78
[22] = tested on: OVCAR-3
[23] = tested on: SW-620
[24] = tested on: OVCAR-8
[25] = tested on: RPMI-8226
[26] = tested on: SF-295
[27] = tested on: UO-31
[28] = tested on: TK-10
[29] = tested on: KM-20L2
[30] = tested on: SF-268
[31] = tested on: LXFL 529
[32] = tested on: HCT-116
[33] = tested on: NCI-H522
[34] = tested on: DMS-114
[35] = tested on: Malme-3M
[36] = tested on: MOLT-4
[37] = tested on: NCI-H460
[38] = tested on: CAKI-1
[39] = tested on: SK-MEL-5
[40] = tested on: HT-29
[41] = tested on: SF-539
[42] = tested on: 786-0
[43] = tested on: SK-OV-3
[44] = tested on: K562
[45] = tested on: DLD-1
[46] = tested on: SK-MEL-2
[47] = tested on: M19-MEL
[48] = tested on: LOX IMVI
[49] = tested on: UACC-257
[50] = tested on: CCRF-CEM
[51] = tested on: ACHN
[52] = tested on: OVCAR-4
[53] = tested on: A498
[54] = tested on: HOP-18
[55] = tested on: HCC 2998
[56] = tested on: EKVX
[57] = tested on: RXF 393
[58] = tested on: DMS-273
[59] = tested on: XF498

In the case of `Cc1cc(N(CCC#N)CCC#N)ccc1/C=C1N=C(/C=C/c2ccccc2)N(c2ccc(S(N)(=O)=O)cc2)C\1=O`, the GI50 [1] is reported as > 100 µM (inactive), the GI50 [2] is reported as > 100 µM (inactive) and the GI50 [3] is reported as > 100 µM (inactive). The GI50 [4] was > 100 µM (inactive), the GI50 [5] was > 100 µM (inactive) and the GI50 [6] was > 100 µM (inactive). The GI50 [7] was > 100 µM (inactive), the GI50 [8] was > 100 µM (inactive) and the GI50 [9] was > 100 µM (inactive). For the same compound, the GI50 [10] was > 100 µM (inactive), the GI50 [11] was > 100 µM (inactive) and the GI50 [12] was > 100 µM (inactive). The GI50 [13] was greater than 100 µM, the GI50 [14] was > 100 µM (inactive) and the GI50 [15] was > 100 µM (inactive). The GI50 [16] was > 100 µM (inactive), the GI50 [17] was > 100 µM (inactive) and the GI50 [18] was > 100 µM (inactive). The GI50 [19] was > 100 µM (inactive), the GI50 [20] was > 100 µM (inactive) and the GI50 [21] was > 100 µM (inactive). The GI50 [22] was > 100 µM (inactive), the GI50 [23] was > 100 µM (inactive) and the GI50 [24] was > 100 µM (inactive). For the same compound, the GI50 [25] was 34.3 µM (inactive), the GI50 [26] was > 100 µM (inactive) and the GI50 [27] was > 100 µM (inactive). The GI50 [28] was > 100 µM (inactive), the GI50 [29] was > 100 µM (inactive) and the GI50 [30] was > 100 µM (inactive). The GI50 [31] was > 100 µM (inactive), the GI50 [32] was > 100 µM (inactive) and the GI50 [33] was > 100 µM (inactive). For the same compound, the GI50 [34] was > 100 µM (inactive), the GI50 [35] was > 100 µM (inactive) and the GI50 [36] was > 100 µM (inactive). For the same compound, the GI50 [37] was > 100 µM (inactive), the GI50 [38] was > 100 µM (inactive) and the GI50 [39] was > 100 µM (inactive). The GI50 [40] was > 100 µM (inactive), the GI50 [41] was > 100 µM (inactive) and the GI50 [42] was > 100 µM (inactive). For the same compound, the GI50 [43] was > 100 µM (inactive), the GI50 [44] was > 100 µM (inactive) and the GI50 [45] was > 100 µM (inactive). For the same compound, the GI50 [46] was > 100 µM (inactive), the GI50 [47] was > 100 µM (inactive) and the GI50 [48] was > 100 µM (inactive). The GI50 [49] was > 100 µM (inactive), the GI50 [50] was > 100 µM (inactive) and the GI50 [51] was > 100 µM (inactive). The GI50 [52] was > 100 µM (inactive) and the GI50 [53] was > 100 µM (inactive).

For `Cc1ccc(N2C(=O)C(=CN)C(=O)N(c3ccc(C)cc3)C2=O)cc1`, the GI50 [1] was 51.6 µM (inactive), the GI50 [2] was > 100 µM (inactive) and the GI50 [3] was > 100 µM (inactive). For the same compound, the GI50 [4] was > 100 µM (inactive), the GI50 [5] was 13.3 µM (inactive) and the GI50 [6] was 10 µM (inactive). The GI50 [7] was > 100 µM (inactive), the GI50 [8] was > 100 µM (inactive) and the GI50 [9] was > 100 µM (inactive). For the same compound, the GI50 [10] was > 100 µM (inactive), the GI50 [11] was > 100 µM (inactive) and the GI50 [12] was > 100 µM (inactive). For the same compound, the GI50 [13] was 62.1 µM, the GI50 [54] was > 100 µM (inactive) and the GI50 [14] was > 100 µM (inactive). The GI50 [15] was 71.9 µM (inactive), the GI50 [16] was > 100 µM (inactive) and the GI50 [17] was > 100 µM (inactive). The GI50 [18] was 44.2 µM (inactive), the GI50 [19] was 31.1 µM (inactive) and the GI50 [20] was 68.9 µM (inactive). The GI50 [21] was > 100 µM (inactive), the GI50 [22] was 65.9 µM (inactive) and the GI50 [55] was 10 µM (inactive). The GI50 [23] was > 100 µM (inactive), the GI50 [24] was > 100 µM (inactive) and the GI50 [26] was > 100 µM (inactive). The GI50 [27] was 53.5 µM (inactive), the GI50 [28] was 48.4 µM (inactive) and the GI50 [29] was > 100 µM (inactive). For the same compound, the GI50 [30] was > 100 µM (inactive), the GI50 [31] was > 100 µM (inactive) and the GI50 [32] was > 100 µM (inactive). The GI50 [33] was > 100 µM (inactive), the GI50 [35] was 47.6 µM (inactive) and the GI50 [36] was > 100 µM (inactive). For the same compound, the GI50 [37] was > 100 µM (inactive), the GI50 [56] was > 100 µM (inactive) and the GI50 [38] was 31.8 µM (inactive). The GI50 [39] was > 100 µM (inactive), the GI50 [40] was > 100 µM (inactive) and the GI50 [41] was > 100 µM (inactive). For the same compound, the GI50 [42] was > 100 µM (inactive), the GI50 [57] was 91.6 µM (inactive) and the GI50 [43] was 19.2 µM (inactive). The GI50 [44] was > 100 µM (inactive), the GI50 [45] was 46.8 µM (inactive) and the GI50 [46] was 66.8 µM (inactive). For the same compound, the GI50 [58] was > 100 µM (inactive), the GI50 [47] was > 100 µM (inactive) and the GI50 [48] was > 100 µM (inactive). The GI50 [49] was > 100 µM (inactive), the GI50 [50] was 89.9 µM (inactive) and the GI50 [51] was 37.9 µM (inactive). The GI50 [52] was > 100 µM (inactive) and the GI50 [53] was 84.9 µM (inactive).

For `O=C(/C=C/c1c(O)ccc2ccccc12)c1cccc2ccccc12`, the GI50 [1] was > 100 µM (inactive), the GI50 [2] was 36 µM (inactive) and the GI50 [3] was > 100 µM (inactive). The GI50 [4] was > 89.5 µM (inactive), the GI50 [5] was > 52.4 µM (inactive) and the GI50 [6] was > 71.9 µM (inactive). The GI50 [7] was > 100 µM (inactive), the GI50 [8] was > 100 µM (inactive) and the GI50 [9] was > 100 µM (inactive). The GI50 [11] was > 100 µM (inactive), the GI50 [12] was > 43.8 µM (inactive) and the GI50 [13] was greater than 58.7 µM. For the same compound, the GI50 [54] was 58.6 µM (inactive), the GI50 [14] was > 57.9 µM (inactive) and the GI50 [15] was > 100 µM (inactive). For the same compound, the GI50 [16] was > 100 µM (inactive), the GI50 [17] was > 100 µM (inactive) and the GI50 [18] was > 100 µM (inactive). For the same compound, the GI50 [19] was > 100 µM (inactive), the GI50 [20] was > 100 µM (inactive) and the GI50 [21] was > 100 µM (inactive). For the same compound, the GI50 [22] was > 100 µM (inactive), the GI50 [55] was > 100 µM (inactive) and the GI50 [23] was > 37.1 µM (inactive). For the same compound, the GI50 [24] was > 100 µM (inactive), the GI50 [25] was 42.1 µM (inactive) and the GI50 [26] was > 100 µM (inactive). For the same compound, the GI50 [27] was 34 µM (inactive), the GI50 [28] was > 100 µM (inactive) and the GI50 [29] was > 100 µM (inactive). The GI50 [30] was > 100 µM (inactive), the GI50 [31] was > 83.6 µM (inactive) and the GI50 [32] was 57.7 µM (inactive). The GI50 [33] was 27.5 µM (inactive), the GI50 [34] was > 59.7 µM (inactive) and the GI50 [35] was > 87.5 µM (inactive). For the same compound, the GI50 [36] was 51.5 µM (inactive), the GI50 [37] was > 100 µM (inactive) and the GI50 [56] was > 100 µM (inactive). The GI50 [38] was > 100 µM (inactive), the GI50 [39] was > 100 µM (inactive) and the GI50 [40] was > 72.4 µM (inactive). For the same compound, the GI50 [41] was > 100 µM (inactive), the GI50 [42] was > 69.7 µM (inactive) and the GI50 [57] was > 100 µM (inactive). The GI50 [59] was > 100 µM (inactive), the GI50 [43] was > 100 µM (inactive) and the GI50 [44] was 51.5 µM (inactive). The GI50 [45] was > 79.4 µM (inactive), the GI50 [46] was > 95.1 µM (inactive) and the GI50 [58] was > 100 µM (inactive). The GI50 [47] was 26.1 µM (inactive), the GI50 [48] was > 59 µM (inactive) and the GI50 [49] was > 100 µM (inactive). The GI50 [50] was 23.7 µM (inactive), the GI50 [51] was > 100 µM (inactive) and the GI50 [53] was > 100 µM (inactive).
